Values quoted from earlier work as cited in US20060014839A1, “Combination of angiotensin II receptor blocker and beta-blocker for secondary prevention of myocardial infarction” (priority 2002, published 2006).

System: elderly patients with heart failure
Details: losartan versus captopril 50 mg t.i.d.

CCCCc1nc(Cl)c(CO)n1Cc1ccc(-c2ccccc2-c2nn[nH]n2)cc1 [losartan]
tolerability and increase in serum creatinine (primary objective): no significant differences
all-cause mortality (722 patients, 49 deaths, preliminary): statistically significant reduction
